Measured values reported in the supplement of paper PMC10307832.

Assays:
Test in all cases: relative viability (nuclei count vs DMSO), 5 days (fraction); higher = more cells survive
Pictilisib + Lapatinib = compound: CS(=O)(=O)N1CCN(Cc2cc3nc(-c4cccc5[nH]ncc45)nc(N4CCOCC4)c3s2)CC1 [Pictilisib] + CS(=O)(=O)CCNCc1ccc(-c2ccc3ncnc(Nc4ccc(OCc5cccc(F)c5)c(Cl)c4)c3c2)o1 [Lapatinib] (partner 2 µM)
Outline: (§1)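 Lung cancer cell lines, seeded in 1536-well plates, were treated the following day by pin tool with a single drug or with five library-drug doses (not always all listed) in √10 steps on top of a fixed anchor-drug dose. Cells were fixed and nuclei stained in one step after 5 days, and nuclei were counted. Relative viability is the nuclei count for treated wells divided by that for vehicle wells, reported as medians of duplicate plates.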

MK-2206 + Vorinostat = compound: NC1(c2ccc(-c3nc4ccn5c(=O)[nH]nc5c4cc3-c3ccccc3)cc2)CCC1 [MK-2206] + O=C(CCCCCCC(=O)Nc1ccccc1)NO [Vorinostat] (partner 1 µM)
Outline: as §1

MK-2206 = compound: NC1(c2ccc(-c3nc4ccn5c(=O)[nH]nc5c4cc3-c3ccccc3)cc2)CCC1 [MK-2206]
Outline: (§2)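 After an overnight hold at 37 °C, lung cancer cell lines in 1536-well plates were pinned with five library-drug doses (not always all listed), each √10 from the next, on vehicle-anchored plates. The cells stayed 5 days without fresh medium, then a one-step fix, permeabilisation and Hoechst stain preceded 4× imaging and MetaXpress nuclear counts. A plate passed only with control CV under 25% and at least one doubling. Viability is the median, over plates, of treated-well nuclei relative to vehicle-well nuclei.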

Pictilisib = compound: CS(=O)(=O)N1CCN(Cc2cc3nc(-c4cccc5[nH]ncc45)nc(N4CCOCC4)c3s2)CC1 [Pictilisib]
Outline: as §2

Cell Line | relative viability (Pictilisib + Lapatinib; first compound 0.02 µM) | relative viability (Pictilisib + Lapatinib; first compound 0.06325 µM) | relative viability (Pictilisib + Lapatinib; first compound 0.6325 µM) | relative viability (Pictilisib + Lapatinib; first compound 2 µM) | relative viability (MK-2206 + Vorinostat; first compound 0.01 µM) | relative viability (MK-2206 + Vorinostat; first compound 0.03162 µM) | relative viability (MK-2206 + Vorinostat; first compound 0.3162 µM) | relative viability (MK-2206 + Vorinostat; first compound 1 µM) | relative viability (MK-2206; 0.01 µM) | relative viability (MK-2206; 0.03162 µM) | relative viability (MK-2206; 0.3162 µM) | relative viability (MK-2206; 1 µM) | relative viability (Pictilisib; 0.02 µM) | relative viability (Pictilisib; 0.06325 µM) | relative viability (Pictilisib; 0.6325 µM) | relative viability (Pictilisib; 1 µM, anchor plate) | relative viability (Pictilisib; 2 µM)
SK-MES-1 | 0.468 | 0.41 | 0.389 | 0.27 | 1.02 | 1.15 | 1.02 | 1.05 | 0.959 | 1.02 | 0.954 | 0.887 | 1.04 | 1.01 | 0.778 | 0.392 | 0.365
NCI-H1355 | 1.01 | 1 | 0.981 | 0.615 | 0.598 | 0.667 | 0.541 | 0.49 | 0.977 | 0.997 | 0.9 | 0.788 | 0.977 | 1 | 0.918 | 0.461 | 0.588
NCI-H727 | 0.876 | 0.825 | 0.781 | 0.654 | 1.18 | 1.33 | 1.25 | 0.901 | 0.976 | 1.01 | 0.901 | 0.894 | 1.04 | 0.92 | 0.914 | 0.39 | 0.536
NCI-H520 | 0.834 | 0.864 | 0.365 | 0.164 | 0.677 | 0.677 | 0.337 | 0.31 | 0.992 | 0.871 | 0.553 | 0.331 | 0.998 | 0.886 | 0.361 | 0.298 | 0.203
NCI-H838 | 1.15 | 0.875 | 0.728 | 0.387 | 0.705 | 0.714 | 0.647 | 0.654 | 0.98 | 1.01 | 0.918 | 0.92 | 1.01 | 0.902 | 0.722 | 0.455 | 0.426
HCC-44 | 0.86 | 0.977 | 1.06 | 0.674 | 1.07 | 1.1 | 1.12 | 1.07 | 0.967 | 1.01 | 0.989 | 0.723 | 1.03 | 0.975 | 0.991 | 0.612 | 0.644
LK-2 | 0.947 | 1 | 0.618 | 0.405 | 0.26 | 0.287 | 0.334 | 0.221 | 0.944 | 1.09 | 1.05 | 0.911 | 0.938 | 0.926 | 0.656 | 0.598 | 0.415
HCC-827 | 0.171 | 0.209 | 0.173 | 0.186 | 0.791 | 0.847 | 0.816 | 0.323 | 1.04 | 1.05 | 1.05 | 0.932 | 1.11 | 1.05 | 1.05 | 0.939 | 0.866
SW 1573 | 1.12 | 1.28 | 0.89 | 0.55 | 0.665 | 0.94 | 0.449 | 0.6 | 0.997 | 1.03 | 0.773 | 0.782 | 0.966 | 0.958 | 0.768 | 0.487 | 0.403
NCI-H2023 | 0.78 | 0.611 | 0.349 | 0.243 | 0.54 | 0.428 | 0.431 | 0.391 | 0.972 | 0.946 | 0.757 | 0.605 | 1.04 | 0.831 | 0.55 | 0.262 | 0.18
EPLC-272H | 1.03 | 1.09 | 0.658 | 0.513 | 0.513 | 0.401 | 0.482 | 0.435 | 1.09 | 0.914 | 0.77 | 0.716 | 0.988 | 0.909 | 0.668 | 0.332 | 0.496
SK-LU-1 | 0.977 | 0.792 | 0.665 | 0.481 | 0.818 | 0.778 | 0.823 | 0.735 | 1.09 | 1.05 | 1.1 | 0.944 | 1.06 | 0.963 | 0.933 | 0.534 | 0.678
NCI-H358 | 0.49 | 0.503 | 0.311 | 0.29 | 0.659 | 0.697 | 0.646 | 0.729 | 1.01 | 0.977 | 0.972 | 0.871 | 0.983 | 0.884 | 0.786 | 0.356 | 0.355
ABC-1 | 1.08 | 1.27 | 1.04 | 0.631 | 0.78 | 1.04 | 1.08 | 1.11 | 0.947 | 0.949 | 0.884 | 0.879 | 1.02 | 0.962 | 0.764 | 0.782 | 0.551
NCI-H1395 | 1.18 | 1.1 | 0.884 | 0.563 | 0.713 | 0.667 | 0.574 | 0.576 | 1 | 0.91 | 0.701 | 0.793 | 1.12 | 1.01 | 0.715 | 0.649 | 0.54
NCI-H2085 | 0.767 | 0.767 | 0.535 | 0.391 | 0.693 | 0.754 | 0.751 | 0.653 | 0.965 | 1.01 | 0.957 | 0.969 | 0.956 | 0.99 | 0.836 | 0.471 | 0.442
NCI-H2087 | 1.12 | 0.926 | 1.06 | 0.952 | 0.469 | 1.1 | 0.791 | 0.862 | 0.938 | 1.25 | 0.881 | 0.746 | 1.07 | 1.09 | 0.968 | 0.913 | 0.689
